Data on one compound can be found in patent US20240307415A1, “STEROID COMPOUND, AND PHARMACEUTICAL COMPOSITION THEREOF AND USE THEREOF” (JIANGSU SIMCERE PHARMACEUTICAL CO., LTD., priority 2021, published 2024).

One assay has as its system CHS mouse model. In words: Efficacy test in CHS mouse model (FITC sensitization, right ear thickness). The following applies: 3 μg/mouse. The class given is in vivo, C57BL/6N mice. How it is done:
Construction of CHS mouse model: 6- to 8-week-old female C57BL/6N mice (Beijing Vital River Laboratory Animal Technology Co., Ltd.) were selected, and all mice were shaved off abdominal hair using a small animal hair clipper. 400 μL of the sensitizer was pipetted with a micropipette and applied evenly to the abdomen of the mice for epidermal sensitization. After application, the mice were held for 3-5 s and the solvent was allowed to evaporate from the skin as clean as possible. The specific preparation method for the sensitizer was: 0.5 g of FITC (fluorescein isothiocyanate; sigma-Aldrich) powder was weighed and fully dissolved in a solvent of 50 mL of acetone (SinoPharm reagent) and 50 mL of DBP (dibutyl phthalate; sigma-Aldrich) in equal proportion to give the sensitizer with the FITC content of 0.5%. On the 6th day after sensitization, the thickness of the right ear of the mice was measured with a dial thickness gauge as a baseline value, then a freshly prepared sensitizer was pipetted with a micropipette and applied evenly inside and outside of the right ear of the mice respectively for epidermal stimulation, and 10 μL of the sensitizer was applied on each side. 24 h after stimulation, the thickness of the right ear of the mice was measured again with a dial thickness gauge to obtain the thickness change of the right ear of the mice, A thickness of right ear=(thickness of right ear 24 h after stimulation)−(baseline value of thickness of right ear).
Therapeutic regimen for CHS model mouse: mice were divided into a blank group, a negative control group, a positive control group, and an experimental group. […] The drug was administered by one-time intraperitoneal injection 1 h before the right ear epidermal stimulation.

Another assay concerns K562-GRE reporter gene. In words: K562-GRE reporter gene activity. The class given is cell-based. The following applies: 24 h, read-out: K562-GRE Reporter EC50. As to the method: To generate the parental K562-GRE cell line, K562 cells were seeded at 5×10^5 cells/well onto a 6-well plate (brand: Costar, Cat. No: 3516) containing 2 mL of complete medium (RPM1640, 10% FBS, penicillin-streptomycin) and cultured at 37° C. with 5% CO2 for 24 h. The next day, 3 μg of pNL2.2[NLucP/MMTV/Hygro-NANO] (Promega) and 3 μL of PLUS reagent (brand: Invitrogen, Cat. No: 11514-015) were diluted in 150 μL of Opti-MEM (brand: Gibco, Cat. No: 11058021) and incubated at room temperature for 5 min. The pNL2.2[NLucP/MMTV/Hygro-NANO] vector contains MMTV LTR (mouse mammary tumor virus long terminal repeat), which drives transcription of the luciferase reporter gene NanoLuc in response to activation of several nuclear receptors (e.g. glucocorticoid receptor and androgen receptor). After incubation, the diluted DNA solution was mixed with Lipofectamine LTX solution (brand: Invitrogen, Cat. No: 15338-100) (6 μL of Lipofectamine LTX+144 μL of Opti-MEM) in a 1:1 ratio, pre-incubated, and incubated at room temperature for 15 min to form a DNA-Lipofectamine LTX complex. After incubation, 300 μL of the DNA-Lipofectamine complex was added directly to the cell wells. The K562 cells were transfected at 37° C. with 5% CO2 for 24 h. After transfection, the cells were washed with 3 mL of PBS and selectively grown for two weeks with complete growth medium containing 125 μg/mL hygromycin B (brand: Invitrogen, Cat. No: 10687010). “K562-GRE (pNL2.2[NLucP/MMTV/Hygro-NANO])” cells were generated.
After mixing, the cells were cultured in an incubator at 37° C. for 24 h. After 24 h of incubation, an equal volume of 100 μL of Nano-Glo luciferase assay system (brand: Promega, Cat. No: N1120) was added to the cells, the mixture was reacted in a shaker at […] for 10 min, and the chemiluminescence values were detected using the PHERAstar instrument. The antibody binding curves were plotted using the logarithmic value of the antibody concentration as the abscissa and the corresponding chemiluminescence reading as the ordinate, and the EC50 value was calculated by four-parameter fitting (GraphPad Prism9).
On the technique in general: Reporter assays use an easily measured gene product as a stand-in for the process of interest.

Assay [1] addresses Glucocorticoid Receptor GR (Homo sapiens (Human), UniProt P04150). The experiment in a line: Binding activity to glucocorticoid receptor GR (Polarscreen fluorescence polarization kit). The settings on record: GR full length, 2 h. How it is done:
The binding activity of the compound to GR was determined using the Polarscreen Glucocorticoid Receptor Assay Kit, Red (brand: Thermo, Cat. No: A15898). […] The highest concentration was 100 μM, 8 concentrations in total. […] With the log value of the final concentration of the compound as the X axis and the mP value as the Y axis, data was input into the processing software Graphpad Prism 9, and the EC50 value was calculated by four-parameter fitting
A general note: Fluorescence polarisation rises when a labelled molecule tumbles more slowly, as on binding a larger partner.

Chain of Glucocorticoid Receptor GR (P04150 whole entry): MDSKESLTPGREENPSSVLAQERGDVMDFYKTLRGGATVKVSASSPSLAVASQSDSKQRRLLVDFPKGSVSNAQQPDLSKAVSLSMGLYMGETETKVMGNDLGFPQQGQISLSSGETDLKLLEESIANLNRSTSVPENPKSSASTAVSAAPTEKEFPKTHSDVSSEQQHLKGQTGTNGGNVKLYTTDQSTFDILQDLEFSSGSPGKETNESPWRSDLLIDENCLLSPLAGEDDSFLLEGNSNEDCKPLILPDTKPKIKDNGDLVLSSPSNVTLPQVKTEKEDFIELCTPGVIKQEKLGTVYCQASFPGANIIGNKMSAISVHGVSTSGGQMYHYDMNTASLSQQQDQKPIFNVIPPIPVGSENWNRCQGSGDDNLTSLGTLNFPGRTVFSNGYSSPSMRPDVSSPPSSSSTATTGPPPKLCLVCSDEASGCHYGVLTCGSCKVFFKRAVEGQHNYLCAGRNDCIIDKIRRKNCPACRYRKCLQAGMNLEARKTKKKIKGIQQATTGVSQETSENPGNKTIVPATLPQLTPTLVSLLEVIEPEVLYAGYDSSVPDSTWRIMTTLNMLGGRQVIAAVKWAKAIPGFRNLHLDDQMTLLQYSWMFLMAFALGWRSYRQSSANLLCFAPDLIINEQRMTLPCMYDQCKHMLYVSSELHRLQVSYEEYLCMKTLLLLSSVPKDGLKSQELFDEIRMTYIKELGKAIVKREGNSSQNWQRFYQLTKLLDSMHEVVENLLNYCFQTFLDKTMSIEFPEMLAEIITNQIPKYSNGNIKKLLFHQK

As usually defined, the EC50 is the concentration giving half of the maximal effect. As to `C[C@]12C=CC(=O)C=C1CC[C@@H]1[C@@H]2[C@@H](O)C[C@@]2(C)[C@H]1C[C@H]1O[C@@H](c3ccc(Cc4cc(N)c5c(c4)CCO5)cc3)O[C@]12C(=O)CO` [Compound 009, (6aR,6bS,7S,8aS,8bS,10R,11aR,12aS,12bS)-10-(4-((7-amino-2,3-dihydrobenzofuran-5-yl)methyl)phenyl)-7-hydroxy-8b-(2-hydroxyacetyl)-6a,8a-dimethyl-6a,6b,7,8,8a,8b,11a,12,12a,12b-decahydro-1H-naphtho[2′,1′:4,5]indeno[1,2-d][1,3]dioxolan-4(2H)-one], in the assay on CHS mouse model (one-time intraperitoneal injection 1 h before right ear stimulation, measured 24 h after stimulation), the “thickness of the right ear in CHS mice compared to the negative control group” value is listed as “significant decrease”. Also, in the assay with CHS mouse model (one-time intraperitoneal injection, CHS mice, right ear thickness), the “efficacy compared with positive reference compound a at the same dose” value was “superior in efficacy to the positive reference compound a”. For the same compound, the EC50 stood at 5.76 nM in the assay on K562-GRE reporter gene and 20.2 nM in assay [1].
